Measurements reported in patent US10072011B2, “Substituted bridged urea analogs as sirtuin modulators” (GlaxoSmithKline Intellectual Property (No.2) Limited, priority 2014, dated 2018).
Read-outs that look alike come from different tables or passages of the source.

Target: T1, SIRT1 (Homo sapiens, UniProt Q96EB6)
T1 sequence (Q96EB6 1-747): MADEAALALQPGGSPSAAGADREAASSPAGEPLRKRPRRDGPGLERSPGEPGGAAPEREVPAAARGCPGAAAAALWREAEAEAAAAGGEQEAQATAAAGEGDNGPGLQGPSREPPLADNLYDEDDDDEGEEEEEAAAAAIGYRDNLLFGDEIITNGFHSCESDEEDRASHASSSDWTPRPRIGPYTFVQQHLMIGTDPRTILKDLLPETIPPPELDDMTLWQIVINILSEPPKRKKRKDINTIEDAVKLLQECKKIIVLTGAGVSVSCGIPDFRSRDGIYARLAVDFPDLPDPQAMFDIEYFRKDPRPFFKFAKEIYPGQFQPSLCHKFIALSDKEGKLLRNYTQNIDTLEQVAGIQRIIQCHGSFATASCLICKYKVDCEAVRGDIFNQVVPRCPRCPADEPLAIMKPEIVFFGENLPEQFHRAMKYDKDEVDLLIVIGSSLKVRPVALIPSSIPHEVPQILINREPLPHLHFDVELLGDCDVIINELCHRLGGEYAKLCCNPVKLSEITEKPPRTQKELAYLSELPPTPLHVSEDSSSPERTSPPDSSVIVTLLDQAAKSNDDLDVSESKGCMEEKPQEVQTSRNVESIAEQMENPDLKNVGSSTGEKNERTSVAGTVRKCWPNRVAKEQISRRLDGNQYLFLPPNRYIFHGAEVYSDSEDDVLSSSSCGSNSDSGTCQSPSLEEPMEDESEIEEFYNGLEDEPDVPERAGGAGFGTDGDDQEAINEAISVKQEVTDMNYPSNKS
Experiment: Trp mass spectrometry assay of SIRT1 activation (Ac-R-H-K-K(Ac)-W-NH2 peptide)
Type: biochemical
Conditions: for Emax: 25 min, read-out: TRP MAX RESP (percent maximum fold activation)
Method: The Trp mass spectrometry assay was conducted as follows. […] The SIRT1 protein was obtained by cloning the SirT1 gene into a T7-promoter containing vector, which was then expressed in BL21(DE3) bacterial cells and purified as described in further detail below. Test compound was added at varying concentrations to this reaction mixture and the resulting reactions were monitored. After the 25 minute incubation with SIRT1, 10 μL of 10% formic acid was added to stop the reaction. The resulting reactions were sealed and frozen for later mass spec analysis. The relative SIRT1 activity was then determined by measuring the amount of O-acetyl-ADP-ribose (OAADPR) formed (or, alternatively, the amount of deacetylated Trp peptide generated) by the NAD-dependent sirtuin deacetylation reaction in the presence of varying concentrations of the test compound versus control reactions lacking the test compound. The degree to which the test agent activated deacetylation by SIRT1 was expressed as EC1.5 (i.e., the concentration of compound required to increase SIRT1 activity by 50% over the control lacking test compound), and Percent Maximum Activation (i.e., the maximum activity relative to control (100%) obtained for the test compound).
This time point was the same as that used for test compounds and, within the linear range, the endpoint represents a change in velocity.
For the above assay, SIRT1 protein was expressed and purified as follows. The SirT1 gene was cloned into a T7-promoter containing vector and transformed into BL21(DE3). The protein was expressed by induction with 1 mM IPTG as an N-terminal His-tag fusion protein at 18° C. overnight and harvested at 30,000×g. Cells were lysed with lysozyme in lysis buffer (50 mM Tris-HCl, 2 mM Tris[2-carboxyethyl]phosphine (TCEP), 10 μM ZnCl2, 200 mM NaCl) and further treated with sonication for 10 min for complete lysis. The protein was purified over a Ni-NTA column (Amersham) and fractions containing pure protein were pooled, concentrated and run over a sizing column (Sephadex S200 26/60 global). The peak containing soluble protein was collected and run on an Ion-exchange column (MonoQ). Gradient elution (200 mM-500 mM NaCl) yielded pure protein. This protein was concentrated and dialyzed against dialysis buffer (20 mM Tris-HCl, 2 mM TCEP) overnight. The protein was aliquoted and frozen at −80° C. until further use.
“NT” means not tested; “ND” means not determinable.

[1] = Trp peptide 0.5 μM, 120 μM βNAD+, 10 nM SIRT1, 25 min at 25° C., relative to control (100%)
[2] = Trp peptide 0.5 μM, 120 μM βNAD+, 10 nM SIRT1, 25 min at 25° C.

Row | Structure (SMILES) | Emax [1] | TRP Activity (EC1.5, concentration of test compound that results in 150% activation of SIRT1) [2] | Emax
1 | Cc1ncc(-c2ccnc(NC(=O)N3c4nc(C(=O)NC5CC5)ccc4N4CC[C@H]3C4)c2)o1 [Example 123, (4S)—N7-cyclopropyl-N5-(4-(2-methyloxazol-5-yl)pyridin-2-yl)-3,4-dihydro-1,4-methanopyrido[2,3-b][1,4]diazepine-5,7(2H)-dicarboxamide] | > 150% | B (EC1.5 1-25 μM) | 
2 | O=C(NCC(F)(F)F)c1ccc2c(n1)N(C(=O)Nc1cc(-c3cnco3)ccn1)[C@H]1CCN2C1 [Example 83, (4S)—N5-(4-(oxazol-5-yl)pyridin-2-yl)-N7-(2,2,2-trifluoroethyl)-3,4-dihydro-1,4-methanopyrido[2,3-b][1,4]diazepine-5,7(2H)-dicarboxamide] | > 150% | A (EC1.5<1 μM) | 
3 | Cc1cccnc1NC(=O)N1c2nc(C(=O)N[C@H](C)C(F)(F)F)ccc2N2CC[C@H]1C2 [Example 247, (4S)—N5-(3-methylpyridin-2-yl)-N7-((R)-1,1,1-trifluoropropan-2-yl)-3,4-dihydro-1,4-methanopyrido[2,3-b][1,4]diazepine-5,7(2H)-dicarboxamide] | > 150% | B (EC1.5 1-25 μM) | 
4 | C#CCNC(=O)c1ccc2c(n1)N(C(=O)Nc1ccccn1)[C@H]1CCN2C1 [Example 99, (4S)—N7-(prop-2-yn-1-yl)-N5-(pyridin-2-yl)-3,4-dihydro-1,4-methanopyrido[2,3-b][1,4]diazepine-5,7(2H)-dicarboxamide] | > 150% | A (EC1.5<1 μM) | 
5 | O=C(NCC1CC1)c1ccc2c(n1)N(C(=O)Nc1ccc(Cl)cn1)[C@H]1CCN2C1 [Example 51, (4S)—N5-(5-chloropyridin-2-yl)-N7-(cyclopropylmethyl)-3,4-dihydro-1,4-methanopyrido[2,3-b][1,4]diazepine-5,7(2H)-dicarboxamide] | > 150% | A (EC1.5<1 μM) | 
6 | Cc1ncc(-c2ccnc(NC(=O)N3c4nc(C(=O)NCC(F)(F)F)ccc4N4CC[C@H]3C4)c2)o1 [Example 115, (4S)—N5-(4-(2-methyloxazol-5-yl)pyridin-2-yl)-N7-(2,2,2-trifluoroethyl)-3,4-dihydro-1,4-methanopyrido[2,3-b][1,4]diazepine-5,7(2H)-dicarboxamide] | > 150% | A (EC1.5<1 μM) | 
7 | Cc1cc(C(=O)N[C@H](C)C(F)(F)F)nc2c1N1CC[C@@H](C1)N2C(=O)Nc1ccccn1 [Example 288, (4S)-9-methyl-N5-(pyridin-2-yl)-N7-((R)-1,1,1-trifluoropropan-2-yl)-3,4-dihydro-1,4-methanopyrido[2,3-b][1,4]diazepine-5,7(2H)-dicarboxamide] | > 150% | A (EC1.5<1 μM) | 
8 | C[C@@H](NC(=O)c1ccc2c(n1)N(C(=O)Nc1cc(-c3cc[nH]n3)ccn1)[C@H]1CCN2C1)C(F)(F)F [Example 323, (4S)—N5-(4-(1H-pyrazol-3-yl)pyridin-2-yl)-N7-((R)-1,1,1-trifluoropropan-2-yl)-3,4-dihydro-1,4-methanopyrido[2,3-b][1,4]diazepine-5,7(2H)-dicarboxamide] | < 150% | A (EC1.5<1 μM) | 
9 | C[C@@H](NC(=O)c1ccc2c(n1)N(C(=O)Nc1cccc(OC[C@@H](O)CO)n1)[C@H]1CCN2C1)C(F)(F)F [Example 144, (4S)—N5-(6-((S)-2,3-dihydroxypropoxy)pyridin-2-yl)-N7-((R)-1,1,1-trifluoropropan-2-yl)-3,4-dihydro-1,4-methanopyrido[2,3-b][1,4]diazepine-5,7(2H)-dicarboxamide] | > 150% | A (EC1.5<1 μM) | 
10 | Cc1ncc(-c2ccnc(NC(=O)N3c4nc(C(=O)N[C@H](C)C(F)(F)F)ccc4N4CC[C@H]3C4)n2)o1 [Example 156, (4S)—N5-(4-(2-methyloxazol-5-yl)pyrimidin-2-yl)-N7-((R)-1,1,1-trifluoropropan-2-yl)-3,4-dihydro-1,4-methanopyrido[2,3-b][1,4]diazepine-5,7(2H)-dicarboxamide] | > 150% | A (EC1.5<1 μM) | 
11 | O=C(c1ccc2c(n1)N(C(=O)Nc1ccccn1)[C@H]1CCN2C1)N1CCC(F)(F)C1 [Example 3, (4S)-7-(3,3-difluoropyrrolidine-1-carbonyl)-N-(pyridin-2-yl)-3,4-dihydro-1,4-methanopyrido[2,3-b] [1, 4] diazepine-5(2H)-carboxamide] | > 150% | B (EC1.5 1-25 μM) | 
12 | O=C(NCC(F)(F)F)c1ccc2c(n1)N(C(=O)Nc1cccc[n+]1[O-])[C@H]1CC[N+]2([O-])C1 [Example 275, (4S)-5-((1-oxidopyridin-2-yl)carbamoyl)-7-((2,2,2-trifluoroethyl)carbamoyl)-2,3,4,5-tetrahydro-1H-1,4-methanopyrido[2,3-b][1, 4]diazepine 1-oxide] | > 150% | C (EC1.5>25 μM) | 
13 | Cn1ccc(=O)c(NC(=O)N2c3nc(C(=O)NCC(F)(F)F)ccc3N3CC[C@H]2C3)c1 [Example 185, (4S)—N5-(1-methyl-4-oxo-1,4-dihydropyridin-3-yl)-N7-(2,2,2-trifluoroethyl)-3,4-dihydro-1,4-methanopyrido[2,3-b][1,4]diazepine-5,7(2H)-dicarboxamide] |  | A (EC1.5<1 μM) | > 150%
14 | O=C(NC[C@@H](O)C(F)(F)F)c1ccc2c(n1)N(C(=O)Nc1ccccn1)[C@H]1CCN2C1 [Example 34, (4S)—N5-(pyridin-2-yl)-N7-((R)-3,3,3-trifluoro-2-hydroxypropyl)-3,4-dihydro-1,4-methanopyrido[2,3-b][1,4]diazepine-5,7(2H)-dicarboxamide] | > 150% | A (EC1.5<1 μM) | 
15 | O=C(NCC(F)(F)F)c1ccc2c(n1)N(C(=O)Nc1cnccn1)[C@H]1CCN2C1 [Example 63, (4S)—N5-(pyrazin-2-yl)-N7-(2,2,2-trifluoroethyl)-3,4-dihydro-1,4-methanopyrido[2,3-b][1,4]diazepine-5,7(2H)-dicarboxamide] |  | A (EC1.5<1 μM) | > 150%
16 | C[C@@H](NC(=O)c1ccc2c(n1)N(C(=O)Nc1ccc(OC[C@@H](O)CO)nn1)[C@H]1CCN2C1)C(F)(F)F [Example 234, (4S)—N5-(6-((S)-2,3-dihydroxypropoxy)pyridazin-3-yl)-N7-((R)-1,1,1-trifluoropropan-2-yl)-3,4-dihydro-1,4-methanopyrido[2,3-b][1,4]diazepine-5,7(2H)-dicarboxamide] | > 150% | A (EC1.5<1 μM) | 
17 | C[C@@H](NC(=O)c1ccc2c(n1)N(C(=O)Nc1cc3nc[nH]c3cn1)[C@H]1CCN2C1)C(F)(F)F [Example 192, (4S)—N5-(3H-imidazo[4,5-c]pyridin-6-yl)-N7-((R)-1,1,1-trifluoropropan-2-yl)-3,4-dihydro-1,4-methanopyrido[2,3-b][1,4]diazepine-5,7(2H)-dicarboxamide] | > 150% | A (EC1.5<1 μM) | 
